The values that follow are results of earlier work, collected in US20090176744A1, “Deuterated fingolimod” (CoNCERT Pharmaceuticals, Inc., priority 2007, published 2009).

The conditions of data set [1]: general finding of cited clinical studies (Kahan 2003; Budde 2002; Ferguson 2003).
For data set [2] the following is noted: renal transplant patients; reversible upon cessation of treatment (Tedesco-Silva 2004).

The structures appear in SMILES notation.

For `CCCCCCCCc1ccc(CCC(N)(CO)CO)cc1.Cl` [fingolimod, 2-amino-2-[2-(4-octylphenyl)ethyl]-1,3-propanediol hydrochloride], in data set [1], the safety and tolerability entry is “safe and well-tolerated”. In addition, in data set [2], the heart rate result was “mild and transient reduction in heart rate”.
